Measured values published in US9567322B2, “Substituted tetrahydropyrans and method of use” (AbbVie S.á.r.l., priority 2014, dated 2017).

Target: T1, F508delCFTR (Homo sapiens, UniProt P13569, DEL508-508)
T1 construct: expressed in transfected cells; host or cells: CFBE41o- (CFBE41o-F508delCFTR-HRP), doxycycline-inducible
Experiment: Cell Surface Expression-Horse Radish Peroxidase (CSE-HRP) assay
Assay type: cell-based
Settings: CFBE41o-F508delCFTR-HRP cells; for EC50: cell surface expression, luminescence readout, 18-24 hours at 33° C., highest concentration tested 20 μM, 8-point curve; for Maximum % activity: maximum at any tested concentration, normalized to on-plate positive control (3 μM) and DMSO
Source text: Cell Surface Expression-Horse Radish Peroxidase (CSE-HRP) Assay:
A cellular assay for measuring the F508delCFTR cell surface expression after correction with test compounds was developed in human lung derived epithelial cell line (CFBE41o-) (Veit G et al, (2012) Mol Biol Cell. 23(21): 4188-4202). This was achieved by expressing the F508delCFTR mutation along with a horseradish peroxidase (HRP) in the fourth exofacial loop and then measuring the HRP activity using luminescence readout from these cells, CFBE41o-F508delCFTR-HRP, that were incubated overnight with the test corrector compounds. Briefly, for this primary assay, the CFBE41o-F508delCFTR-HRP cells were plated in 384-well plates (Greiner Bio-one; Cat 781080) at 4,000 cells/well along with 0.5 μg/mL doxycycline to induce the F508delCFTR-HRP expression and further incubated at 37° C., 5% CO2 for 72 hours. The test compounds were then added at the required concentrations and further incubated for 18-24 hours at 33° C. The highest concentration tested was 20 μM with an 8-point concentration response curve using a 3-fold dilution. Three replicate plates were run to determine one EC50. All plates contained negative controls (dimethyl sulfoxide, DMSO) and positive controls (3 μM of 3-[(2R,4R)-4-({[1-(2,2-difluoro-1,3-benzodioxol-5-yl)cyclopropyl]carbonyl}amino)-7-methoxy-3,4-dihydro-2H-chromen-2-yl]benzoic acid) as well as on-plate concentration response of the positive control. Post incubation, the plates were washed 5× times with Dulbecco's phosphate buffered saline (DPBS), followed by the addition of the HRP substrate, luminol (50 μL), and measuring the HRP activity using luminescence readout on EnVision® Multilabel Plate Reader (Perkin Elmer; product number 2104-0010). The raw counts from the experiment are analyzed using Accelrys® Assay Explorer v3.3.
Z′ greater than 0.5 was used as passing quality control criteria for the plates.
The Z′ is defined as: 1−[3*SDPositive Control+3*SDNegative Control/Absolute(MeanPositive Control−MeanNegative Control)],
wherein “SD” is standard deviation.
The % activity measured at each of the 8 test concentrations of the test compound was normalized to the on-plate positive control using the following formula: % activity=[(test compound response−DMSO response)/(positive control response−DMSO response)]*100
The maximum % activity achieved for the test compound at any tested concentration is presented in Table 1 along with the EC50 calculated using the following general sigmoidal curve with variable Hill slope equation (described as Model 42 in the Accelrys® Assay Explorer v3.3 software): y=(a−d)/(1+(x/c)^b)+d General sigmoidal curve with concentration, response, top, bottom, EC50 and Hill slope.
This model describes a sigmoidal curve with an adjustable baseline, a. The equation can be used to fit curves where response is either increasing or decreasing with respect to the independent variable, “x”.
“x” is a concentration of drug under test.
“a” is the maximum response, and “d” is the minimum response
“c” is the inflection point (EC50) for the curve. That is, “y” is halfway between the lower and upper asymptotes when x=c.
“b” is the slope-factor or Hill coefficient. The sign of b is positive when the response increases with increasing dose and is negative when the response decreases with increasing dose (inhibition).

T1 sequence (P13569 with tags, fused parts or gaps DEL508-508): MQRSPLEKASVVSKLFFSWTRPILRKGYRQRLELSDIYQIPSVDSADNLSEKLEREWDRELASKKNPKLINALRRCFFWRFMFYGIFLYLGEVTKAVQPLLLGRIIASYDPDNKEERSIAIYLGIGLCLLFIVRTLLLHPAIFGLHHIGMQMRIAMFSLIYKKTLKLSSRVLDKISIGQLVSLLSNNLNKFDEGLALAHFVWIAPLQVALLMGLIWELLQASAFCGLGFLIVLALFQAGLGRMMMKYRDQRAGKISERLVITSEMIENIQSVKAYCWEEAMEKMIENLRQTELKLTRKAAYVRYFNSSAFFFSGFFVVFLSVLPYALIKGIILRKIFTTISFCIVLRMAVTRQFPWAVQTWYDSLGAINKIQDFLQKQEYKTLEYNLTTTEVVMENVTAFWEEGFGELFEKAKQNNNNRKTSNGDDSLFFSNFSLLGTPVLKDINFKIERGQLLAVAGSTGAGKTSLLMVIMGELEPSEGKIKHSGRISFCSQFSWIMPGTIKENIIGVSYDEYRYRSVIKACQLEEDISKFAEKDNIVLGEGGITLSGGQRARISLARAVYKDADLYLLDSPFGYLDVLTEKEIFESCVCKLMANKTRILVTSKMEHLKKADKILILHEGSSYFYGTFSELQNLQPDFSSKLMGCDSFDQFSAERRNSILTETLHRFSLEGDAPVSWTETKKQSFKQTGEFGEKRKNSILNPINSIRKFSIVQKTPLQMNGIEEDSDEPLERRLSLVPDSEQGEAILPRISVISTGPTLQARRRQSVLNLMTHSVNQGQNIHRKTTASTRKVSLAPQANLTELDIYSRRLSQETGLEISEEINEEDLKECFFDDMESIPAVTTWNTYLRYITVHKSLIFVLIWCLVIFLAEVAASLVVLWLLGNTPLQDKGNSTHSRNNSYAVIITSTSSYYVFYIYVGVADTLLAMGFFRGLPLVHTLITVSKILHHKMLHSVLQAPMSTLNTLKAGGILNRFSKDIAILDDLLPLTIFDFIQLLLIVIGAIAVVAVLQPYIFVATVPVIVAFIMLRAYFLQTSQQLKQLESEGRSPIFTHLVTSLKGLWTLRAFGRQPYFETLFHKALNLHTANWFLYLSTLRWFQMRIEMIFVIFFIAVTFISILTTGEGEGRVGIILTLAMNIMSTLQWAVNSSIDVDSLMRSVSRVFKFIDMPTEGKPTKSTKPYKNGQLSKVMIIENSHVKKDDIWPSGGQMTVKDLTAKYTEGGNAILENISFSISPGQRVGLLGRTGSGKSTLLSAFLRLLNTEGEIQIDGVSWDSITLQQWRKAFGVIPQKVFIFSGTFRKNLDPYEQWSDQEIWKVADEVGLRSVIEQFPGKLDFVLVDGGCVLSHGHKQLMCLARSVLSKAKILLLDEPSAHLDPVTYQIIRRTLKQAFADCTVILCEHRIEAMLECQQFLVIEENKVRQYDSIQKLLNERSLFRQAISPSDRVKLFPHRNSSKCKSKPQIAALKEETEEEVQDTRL

Row | SMILES | EC50 [nM] | Maximum % activity [%]
1 | COC(=O)c1ccc([C@H]2C[C@@H](NC(=O)C3(c4ccc5c(c4)OC(F)(F)O5)CC3)CCO2)cc1 (racemic) [Example 13, methyl rac-4-[(2R,4S)-4-({[1-(2,2-difluoro-1,3-benzodioxol-5-yl)cyclopropyl]carbonyl}amino)tetrahydro-2H-pyran-2-yl]benzoate] | 1160 | 110
2 | O=C(O)c1ccc([C@H]2C[C@@H](NC(=O)C3(c4ccc5c(c4)OC(F)(F)O5)CC3)C[C@@H](c3ccccc3)O2)cc1 (racemic) [Example 50, rac-4-[(2R,4S,6S)-4-({[1-(2,2-difluoro-1,3-benzodioxol-5-yl)cyclopropyl]carbonyl}amino)-6-phenyltetrahydro-2H-pyran-2-yl]benzoic acid] | 520 | 92
3 | Cc1cc(C(=O)O)ccc1[C@H]1C[C@@H](NC(=O)C2(c3ccc4c(c3)OC(F)(F)O4)CC2)CCO1 (stereo in doubt) [Example 43, rel-4-[(2R,4S)-4-({[1-(2,2-difluoro-1,3-benzodioxol-5-yl)cyclopropyl]carbonyl}amino)tetrahydro-2H-pyran-2-yl]-3-methylbenzoic acid] | 320 | 119
4 | COC(=O)c1ccc([C@@H]2C[C@H](NC(=O)C3(c4ccc5c(c4)OC(F)(F)O5)CC3)C[C@H](c3ccc(C(=O)OC)cc3)O2)cc1 [Example 51, dimethyl rac-4,4′-[(2R,4s,6S)-4-({[1-(2,2-difluoro-1,3-benzodioxol-5-yl)cyclopropyl]carbonyl}amino)tetrahydro-2H-pyran-2,6-diyl]dibenzoate] | 760 | 103
5 | COC(=O)c1cccc([C@H]2C[C@H](NC(=O)C3(c4ccc5c(c4)OC(F)(F)O5)CC3)CCO2)c1 (racemic) [Example 4, methyl rac-3-[(2R,4R)-4-({[1-(2,2-difluoro-1,3-benzodioxol-5-yl)cyclopropyl]carbonyl}amino)tetrahydro-2H-pyran-2-yl]benzoate] | 3110 | 23
6 | COC(=O)c1ccc([C@H]2C[C@H](NC(=O)C3(c4ccc5c(c4)OC(F)(F)O5)CC3)CC(C)(C)O2)cc1 (racemic) [Example 32, methyl rac-4-[(2R,4S)-4-({[1-(2,2-difluoro-1,3-benzodioxol-5-yl)cyclopropyl]carbonyl}amino)-6,6-dimethyltetrahydro-2H-pyran-2-yl]benzoate] | 4120 | 69
7 | C[C@@H]1C[C@H](NC(=O)C2(c3ccc4c(c3)OC(F)(F)O4)CC2)C[C@H](c2ccc(C(=O)O)cc2)O1 (single isomer, unassigned) [Example 59] | 980 | 90
8 | COC(=O)c1ccccc1[C@H]1C[C@@H](NC(=O)C2(c3ccc4c(c3)OC(F)(F)O4)CC2)CCO1 (racemic) [Example 11, methyl rac-2-[(2R,4S)-4-({[1-(2,2-difluoro-1,3-benzodioxol-5-yl)cyclopropyl]carbonyl}amino)tetrahydro-2H-pyran-2-yl]benzoate] | 900 | 116
9 | O=C(O)c1cccc([C@H]2C[C@@H](NC(=O)C3(c4ccc5c(c4)OC(F)(F)O5)CC3)CCO2)c1 (racemic) [Example 2, rac-3-[(2R,4S)-4-({[1-(2,2-difluoro-1,3-benzodioxol-5-yl)cyclopropyl]carbonyl}amino)tetrahydro-2H-pyran-2-yl]benzoic acid] | 850 | 71
10 | C[C@H]1C[C@@H](NC(=O)C2(c3ccc4c(c3)OC(F)(F)O4)CC2)C[C@@H](c2ccc(C(=O)O)cc2)O1 (single isomer, unassigned) [Example 58] | 7370 | 63
11 | COC(=O)c1ccc([C@H]2C[C@@H](NC(=O)C3(c4ccc5c(c4)OC(F)(F)O5)CC3)CC(C)(C)O2)cc1 (racemic) [Example 34, methyl rac-4-[(2R,4R)-4-({[1-(2,2-difluoro-1,3-benzodioxol-5-yl)cyclopropyl]carbonyl}amino)-6,6-dimethyltetrahydro-2H-pyran-2-yl]benzoate] | 1610 | 105
12 | O=C(O)c1cccc([C@H]2C[C@H](NC(=O)C3(c4ccc5c(c4)OC(F)(F)O5)CC3)C[C@@H](c3ccccc3)O2)c1 (racemic) [Example 25, rac-3-[(2R,4R,6S)-4-({[1-(2,2-difluoro-1,3-benzodioxol-5-yl)cyclopropyl]carbonyl}amino)-6-phenyltetrahydro-2H-pyran-2-yl]benzoic acid] | 2020 | 108
13 | CC(C)(O)c1cccc([C@H]2C[C@H](NC(=O)C3(c4ccc5c(c4)OC(F)(F)O5)CC3)CCO2)c1 (racemic) [Example 7, rac-1-(2,2-difluoro-1,3-benzodioxol-5-yl)-N-{(2R,4R)-2-[3-(2-hydroxypropan-2-yl)phenyl]tetrahydro-2H-pyran-4-yl}cyclopropanecarboxamide] | 5560 | 27
14 | COC(=O)c1ccc([C@H]2CC(NC(=O)C3(c4ccc5c(c4)OC(F)(F)O5)CC3)C[C@@H](C3CC3)O2)cc1 (mixture of isomers) [Example 38, methyl rac-4-[(2R,6S)-6-cyclopropyl-4-({[1-(2,2-difluoro-1,3-benzodioxol-5-yl)cyclopropyl]carbonyl}amino)tetrahydro-2H-pyran-2-yl]benzoate] | 2480 | 84
15 | COC(=O)c1ccc([C@@H]2C[C@H](NC(=O)C3(c4ccc5c(c4)OC(F)(F)O5)CC3)CCO2)c(C)c1 (single isomer, unassigned) [Example 40] | 2100 | 60
16 | O=C(O)c1ccc([C@@H]2C[C@H](NC(=O)C3(c4ccc5c(c4)OC(F)(F)O5)CC3)CCO2)cc1 [Example 30, 4-[(2S,4R)-4-({[1-(2,2-difluoro-1,3-benzodioxol-5-yl)cyclopropyl]carbonyl}amino)tetrahydro-2H-pyran-2-yl]benzoic acid] | 9570 | 26
17 | O=C(N[C@H]1CCO[C@@H](c2cccc(CO)c2)C1)C1(c2ccc3c(c2)OC(F)(F)O3)CC1 (racemic) [Example 9, rac-1-(2,2-difluoro-1,3-benzodioxol-5-yl)-N-{(2R,4S)-2-[3-(hydroxymethyl)phenyl]tetrahydro-2H-pyran-4-yl}cyclopropanecarboxamide] | 2260 | 61
18 | Cc1cc(C(=O)O)ccc1[C@H]1C[C@@H](NC(=O)C2(c3ccc4c(c3)OC(F)(F)O4)CC2)CCO1 (stereo in doubt) [Example 37, rac-4-[(2R,4S)-4-({[1-(2,2-difluoro-1,3-benzodioxol-5-yl)cyclopropyl]carbonyl}amino)tetrahydro-2H-pyran-2-yl]-3-methylbenzoic acid] | 470 | 115
19 | COC(=O)c1cccc([C@@H]2C[C@H](NC(=O)C3(c4ccc5c(c4)OC(F)(F)O5)CC3)CCO2)c1 [Example 16, methyl 3-[(2S,4R)-4-({[1-(2,2-difluoro-1,3-benzodioxol-5-yl)cyclopropyl]carbonyl}amino)tetrahydro-2H-pyran-2-yl]benzoate] | 2620 | 44
20 | COc1ccc([C@@H]2C[C@H](NC(=O)C3(c4ccc5c(c4)OC(F)(F)O5)CC3)C[C@H](c3ccc(C(=O)O)cc3)O2)cc1 (single isomer, unassigned) [Example 66] | 320 | 79
21 | COC(=O)c1ccc([C@H]2C[C@@H](NC(=O)C3(c4ccc5c(c4)OC(F)(F)O5)CC3)C[C@@H](C)O2)cc1 (racemic) [Example 39, methyl rac-4-[(2R,4S,6R)-4-({[1-(2,2-difluoro-1,3-benzodioxol-5-yl)cyclopropyl]carbonyl}amino)-6-methyltetrahydro-2H-pyran-2-yl]benzoate] | 1640 | 90
